This is an account of results in patent US10858386B2, “Drug compound and purification methods thereof” (Otsuka Pharmaceutical Co., Ltd., priority 2017, dated 2020).

Values joined by “and” are separate entries in the source; they are usually repeats but may differ in a detail not shown here. Identical values can stand only once.

Assay type in all cases: physicochemical
Data set [1] is described as follows: Thermogravimetric analysis (TGA) weight loss of the lyophilized product. An excerpt:
TGA can be used as a corroborative method for residual moisture determination where the change in weight is attributed to the evolution of volatile substances, such as water. In addition, TGA can be used to deter mine physico-chemical changes as the specimen begins to decompose at elevated temperatures.
TGA monitors the change in weight of a material as a function of temperature or time with heating. The analysis can be performed using a TA Instruments QSO per USP 891, Thermal Analysis. Test parameters and data analysis can conducted using TA Instruments Universal Analysis® software version 4.5A on a PC interface.
Solid material, with a weight of about 13 mg to about 19 mg, can be placed in an open ceramic sample pan. The sample is then heated from 25° C. to 400° C. using a warming rate of about 10° C. per minute to measure the weight loss across the temperature range. Nitrogen, NF is used to purge the sample continuously at a flow rate of 60 mL/minute. The instrument is calibrated at temperatures that span the range of high temperature analysis.
The lyophilized material is warmed and the sample weight can be monitored for any change. During warming, weight loss is correlated to the evolution of volatile components in the sample. Calculations identify the sample weight correlated to a temperature.

A short description of data set [2]: Turbidity of pooled reconstituted samples (Hach 2100AN turbidimeter, NTU). An excerpt:
Turbidity monitors the transmission of light through a liquid sample to determine whether the sample is clear or the degree of opalescence in the sample. The analysis can be performed using a Hach Model 2100AN Laboratory Turbidimeter. The Hach Model 2100AN is a ratio turbidimeter that uses the ratio of transmitted to scattered light to reduce error in the measurement caused by colored solutions.
Prior to each use, the Turbidimeter is calibrated with a Hach StabCal® Calibration Kit and then checked using Hach Gelex® Secondary Turbidity Standards. Sample cells are cleaned and oiled to reduce interference by dirt or imperfections in the glass. Sample cell indexing matches cells with similar interference for sample comparison.
Reconstituted samples can be pooled to achieve at least 2.5 mL of sample, which is placed in the indexed sample cells for analysis. The turbidimeter measures the opalescence and returns a value in nephelometric turbidity units (NTU) ratio. This value was recorded by the instrument with a time and date stamp to track each sample.

Data set [3] is described as follows: Reconstitution time of the lyophilized product in the diluent (65% propylene glycol, 25% glycerin, 10% ethanol). The conditions noted are these: 1 mL diluent. An excerpt:
(§1) The requirements of a constituted solution are that there is no visible insoluble material and the solution is no less clear than the diluent after a predetermined amount of time. The volume for reconstitution can return the product to the same volume and concentration as the bulk solution used for filling or may be the volume intended for patient delivery in a clinical setting.
For reconstitution, a specified volume of a diluent can be drawn up into a syringe. The diluent can then be extruded into the center of the dried cake of the product and the timer started. The product is then inspected at approximately 5 second intervals to determine the time material dissolved.
Reconstitution was performed by extruding 1 mL of diluent into each vial using a vial adapter or syringe and allowing the vials to sit undisturbed until clear.
(§2) Following lyophilization, the lyophilized samples were analysed for purity (% purity by HPLC), DMSO residual content, and residual moisture. The samples were reconstituted by dissolving them in the non-aqueous solvent system described in TABLE 11 below and the reconstitution time and appearance of the reconstituted formulations were analysed.

Data set [4] in a line: Appearance of the reconstituted solution. As for the experimental part:
as §1, §2

[5] abbreviates: Example 8 Study E, 3 pooled samples per lot.
[6] abbreviates: Example 8 Study E: low shelf temperature, low chamber pressure, 15 microns in secondary drying.
[7] abbreviates: Example 8 Study F: target parameters of TABLE 18.

On to `Nc1ncn(C2CC(OP(=O)([O-])OCC3OC(n4cnc5c(=O)[nH]c(N)nc54)CC3O)C(CO)O2)c(=O)n1.[Na+]` (stereo not drawn) [Lot 1], for which the “Weight Loss (% w/w), Total (TGA)” value is given as “Total: 18.93 % w/w” in data set [1] (Example 8 Study F) and “Total: 16.7 % w/w” in data set [1] (Example 8 Study G, one vial). Also, the “Turbidity (NTU)” value in data set [2] (setting [5]) was 0.799 NTU and 0.833 NTU and 0.756 NTU. Moreover, the “Average Recon Time (min)” value in data set [3] (setting [6]) is “Lot 1: 17 min”; in data set [3] (setting [7]), “Lot 1: 17.3 min”.
In the case of `Nc1ncn(C2CC(OP(=O)([O-])OCC3OC(n4cnc5c(=O)[nH]c(N)nc54)CC3O)C(CO)O2)c(=O)n1.[Na+]` (stereo not drawn) [Lot 2], the “Weight Loss (% w/w), Total (TGA)” value in data set [1] (Example 8 Study F) is on record as “Total: 19.82 % w/w”. Moreover, the “Turbidity (NTU)” value in data set [2] (setting [5]) was 0.795 NTU and 0.808 NTU and 0.867 NTU. For the same compound, the “Average Recon Time (min)” value in data set [3] (setting [6]) is recorded as “Lot 2: 17 min”; in data set [3] (setting [7]) it was “Lot 2: 18 min”.
On to `Nc1ncn([C@H]2CC(OP(=O)(O)OC[C@H]3O[C@@H](n4cnc5c(=O)[nH]c(N)nc54)CC3O)[C@@H](CO)O2)c(=O)n1` (stereo partly drawn) [compound of Formula (1)], for which, in data set [1] (Example 2 full load, TABLE 6 cycle), the “TGA total weight loss” value stood at 17%. Moreover, the “Weight Loss (% w/w), Total (TGA)” value in data set [1] (Example 8 Study B, vial 1 and 2) was 17.35 % w/w and 18.07 % w/w; in data set [1] (Example 8 Study F), “approximately 19 % w/w”; in data set [1] (Example 8 Study G, one vial), “approximately 17 % w/w”. Moreover, the TGA mass loss result in data set [1] (Example 8 repeat of Study H, one vial) is “about 17 % w/w”. In addition, the “Turbidity (NTU)” value in data set [2] (setting [5]) is “below 3 NTU”; in data set [2] (Example 8 Study G, 3 pooled samples), 16.9 NTU and 16 NTU and 19 NTU. For the same compound, the “Average Recon Time” value in data set [3] (setting [7]) lay in the range of 17 to 18 min. For the same compound, the “Appearance of reconstituted solution” value is “clear reconstituted solution” in data set [4] (Example 7, lyophilization procedure of TABLE 16); “clear and colorless solutions” in data set [4] (Example 8 Study A); “clear and colorless solutions” in data set [4] (Example 8 Study B); “clear and colorless solutions” in data set [4] (Example 8 Study C); “clear and colorless solutions” in data set [4] (Example 8 Study D); “clear and colorless solutions” in data set [4] (Example 8 Study E). For the same compound, the “Appearance of reconstituted solution” value is “clear and colorless solutions” in data set [4] (Example 8 Study F); “clear and colorless solutions” in data set [4] (Example 8 Study G); “clear and colorless solutions” in data set [4] (Example 8 Study H); “clear and colorless solutions” in data set [4] (Example 8 repeat of Study H).
